Series [1] deals with Stenotrophomonas maltophilia, Micrococcus luteus, Staphylococcus aureus, Escherichia coli, Enterobacter cloacae, Enterococcus faecalis, Streptococcus …. To be noted: Pettit et al., 2000; cited from earlier work.
For another series, the system named is Cryptococcus neoformans. The series can be described thus: Disk diffusion assay, Cryptococcus neoformans. In kind it is cell-based. The source says:
(§1) Antimicrobial susceptibility testing. Compounds were screened against the bacteria Stenotrophomonas maltophilia, Micrococcus luteus, Staphylococcus aureus, Escherichia coli, Enterobacter cloacae, Enterococcus faecalis, Streptococcus pneumoniae, Neisseria gonorrhoeae, and the fungi Candida albicans and Cryptococcus neoformans, according to established disk susceptibility testing protocols (National Committee for Clinical Laboratory Standards 1997. Performance standards for antimicrobial disk susceptibility tests-sixth edition: Approved Standard M2-A6, NCCLS, Wayne, Pa.)

In series [2] the test system is Stenotrophomonas maltophilia, Micrococcus luteus, Staphylococcus aureus, Escherichia coli, Enterobacter cloacae, Enterococcus faecalis, Streptococcus …. Put plainly: Antimicrobial disk susceptibility testing, bacteria and fungi panel. In kind it is cell-based.
Excerpt: as §1

The format of series [3] is physicochemical. The following applies: at 25° C.
In series [4] the test system is human cancer cell lines and murine P388 lymphocytic leukemia cell line. Put plainly: Cancer cell line inhibitory activity, panel as a whole (Table II). The class given is cell-based.

For the compound `COc1ccc(/C=C/c2cc(OC)c(OC)c(OC)c2)c(O)c1O` [(E)-combretastatin A-1], the “antibacterial and antifungal activities (literature)” value in series [1] is “antibacterial and antifungal activities”.

`COc1ccc(/C=C\c2cc(O)c(OC)c(OC)c2)cc1O` [Compound 2a, Combretastatin A-3]: the MIC in the series on Cryptococcus neoformans is 50-100 μg/disk.

As for `COc1ccc(/C=C\c2cc(OC)c(OC)c(OP(=O)([O-])O)c2)cc1OP(=O)([O-])O.[Na+].[Na+]` [Compound 10a, Sodium combretastatin A-3 3,3′-O-phosphate], in series [2], the “activity in disk diffusion assays” value is “not active”. The Solubility in series [3] is reported as >218 mg/mL. Further, in series [4], the “cancer cell line inhibitory activity (in words)” value is on record as “good cancer cell line inhibitory activity”.

On to `COc1ccc(/C=C\c2cc(OC)c(OC)c(OP(=O)([O-])O)c2)cc1OP(=O)([O-])O.[Li+].[Li+]` [Compound 10b], for which the Solubility in series [3] is recorded as >100 mg/mL.

For the compound `COc1ccc(/C=C\c2cc(OC)c(OC)c(OP(=O)([O-])O)c2)cc1OP(=O)([O-])O.[K+].[K+]` [Compound 10c], the Solubility in series [3] is >228 mg/mL. The “cancer cell line inhibitory activity (in words)” value in series [4] was “good cancer cell line inhibitory activity”.

Turning to `COc1ccc(/C=C\c2cc(OC)c(OC)c(OP(=O)([O-])O)c2)cc1OP(=O)([O-])O.[Rb+].[Rb+]` [Compound 10d], in series [3], the Solubility is >60 mg/mL.

On to `COc1ccc(/C=C\c2cc(OC)c(OC)c(OP(=O)([O-])[O-])c2)cc1OP(=O)([O-])[O-].[Mg+2].[Mg+2]` [Compound 10h], for which the Solubility in series [3] stood at 10 mg/mL.

In the case of `C1COCCN1.C1COCCN1.COc1ccc(C=Cc2cc(OC)c(OC)c(OP(=O)(O)O)c2)cc1OP(=O)(O)O` [Compound 10k], in series [3], the Solubility is listed as >40 mg/mL.

Compound `COc1ccc(/C=C\c2cc(OC)c(OC)c(OP(=O)(O)O)c2)cc1OP(=O)(O)O.NC(=O)c1cccnc1.NC(=O)c1cccnc1.NC(=O)c1cccnc1.NC(=O)c1cccnc1` [Compound 10l] displayed a Solubility in series [3] of 27 mg/mL.

For orientation: Solubility means how much of the substance goes into solution per volume. High values mean a readily soluble substance, low ones a poorly soluble substance.
